Data taken from patent US9018242B2, “Salt form of tyrosine kinase inhibitor” (Jiangsu Simcere Pharmaceutical R&D Co., Ltd, priority 2011, dated 2015).

Legend:
[1] = Hygroscopicity measurement (weight gain); assay type: physicochemical; conditions: 25±1° C., relative humidity 80±2%, 24 hours
Experimental: The method for measuring the hygroscopicity may include: placing a certain amount of a sample to be tested into a precisely weighed glass weighing bottle (m1) with a plug and precisely weighing (m2); placing the opened weighing bottle into a thermostatic dryer (with saturated ammonium sulfate solution placed at the bottom, with a relative humidity of 80±2%) at 25±1° C. for 24 hours; covering the weighing bottle with the plug and precisely weighing (m3), and calculating the percent of weight gain of the sample to be tested according to the following equation: […]
The measurement method includes: placing a certain amount of sample to be tested into a precisely weighed glass weighing bottle (m1) with a plug and precisely weighing (m2); placing the opened weighing bottle in a thermostated dryer (with saturated ammonium sulfate solution placed at the bottom, with a relative humidity of 80±2%) at 25±1° C. for 24 hours; covering the weighing bottle with the plug and precisely weighing (m3).
Characterization of the hygroscopicity and definition of the hygroscopic weight gain:
Deliquescence: sufficient moisture was absorbed to form liquid;
Slight hygroscopicity: hygroscopic weight gain was less than 2% and not less than 0.2%: […]

[2] = Solubility in water by HPLC; assay type: physicochemical; conditions: purified water, 25° C.; for solubility at 30 min: thermodynamic from solid
Experimental: Liquid chromatograph: Agilent 1200 HPLC system (diode array detector), ChemStation
Mobile phase: acetonitrile/water
Detection wavelength: 264 nm
About 100 mg sample to be tested was precisely weighed and placed into a 100 ml graduated flask at 25° C.; an appropriate amount of solvent [acetonitrile/water (80:20)] was added to dissolve the sample under ultrasonic sound, and the solution was diluted to a given scale and shaken up; 10 μl resulting solution was precisely measured and loaded into the liquid chromatograph, the chromatogram was recorded, and the peak area Scontrol was measured.
10 ml purified water was measured and placed into a 25 ml Kjeldahl flask. The sample to be tested was gradually added at 25° C. until an insoluble solid appeared in the solution. The solution was treated under ultrasonic sound for 30 min and the insoluble solid was filtered off. 10 μl filtrate was precisely weighed and loaded into the liquid chromatograph, the chromatogram was recorded, and the peak area Stest was measured.

[3] = Plasma exposure (AUC) in rats after gavage administration; assay type: in vivo; conditions: rat, po, male SD rats, 10 mg/kg (based on pharmaceutically active compound), salts dissolved in pure water, active compound as suspension in 0.5% CMC, up to 24 h
Experimental: Laboratory animal: male SD rats
Dosage: 10 mg/kg (based on pharmaceutically active compound)
Formulation for salts: dissolving in pure water
(§1) Formulation for pharmaceutically active compound: suspension in CMC (carboxymethylcellulose), 0.5%
Animal Grouping and Testing Course:
Each group includes three male rats having a weight of 180 to 210 g. Gavage administration was performed; the blood was collected at point of time: 5 min, 15 min, 30 min, 45 min, 1 h, 2 h, 4 h, 6 h, 10 h and 24 h; about 250 μl blood was collected from orbital venous plexus into a heparin-containing tube, centrifuged, and 100 μl plasma was used for LC-MS analysis.

[4] = tested on: human colon cancer HT-29 xenografts; experiment: Therapeutic effect on human colon cancer HT-29 xenografts in nude mice; assay type: in vivo, BALB/cA-nude mice; conditions: 40 mg/kg (based on pharmaceutically active compound), gavage for 21 days, L-malate in pure water, active compound as suspension in 0.5% CMC
Experimental: Laboratory animal: BALB/cA-nude mice, 6-7 weeks, ♀
Dosage: 40 mg/kg (based on pharmaceutically active compound)
Formulation for L-malate: dissolving in pure water
as §1
Nude mice were subcutaneously inoculated with human colon cancer HT-29 cells. After the tumor grew to a size of 150 to 250 mm^3, the animals were randomly divided into three groups (d0). The animals were continuously administered through gavage for 21 days, and the tumor volume was measured 2 to 3 times per week. The tumor volume (V) was calculated according to the equation: V=1/2×a×b^2, where a and b represent length and width respectively.
The relative proliferation of tumor=T/C(%)=(T−T0)/(C−C0)×100, where T and C are the tumor volumes at the end of experiment, T0 and C0 are the tumor volumes at the start of experiment; the tumor inhibition rate=1−T/C(%).

Compound | Hygroscopicity [1] | solubility at 30 min [2] [mg/mL] | AUC(0-t) [3] [ng·h/mL] | Solubility in Water [2] [mg/mL] | Tumor Inhibition Rate [4] [%]
CC(=O)O.CCN(CC)CCNC(=O)c1c(C)[nH]c2c1CCC/C2=C1/C(=O)Nc2ccc(F)cc21 [Acetate, (Z)—N-[2-(diethylamino)ethyl]-2-methyl-7-(1,2-dihydro-5-fluoro-2-oxo-3H-indol-3-ylidene)-4,5,6,7-tetrahydro-1H-indol-3-carboxamide acetate] | Strong hygroscopicity (hygroscopic weight gain was not less than 15%) | 30.7 |  |  | 
CCN(CC)CCNC(=O)c1c(C)[nH]c2c1CCC/C2=C1/C(=O)Nc2ccc(F)cc21.O=S(=O)(O)c1ccccc1 [Benzenesulfonate, (Z)—N-[2-(diethylamino)ethyl]-2-methyl-7-(1,2-dihydro-5-fluoro-2-oxo-3H-indol-3-ylidene)-4,5,6,7-tetrahydro-1H-indol-3-carboxamide benzenesulfonate] | Hygroscopicity (hygroscopic weight gain was less than 15% and not less than 2%) | 19.2 |  |  | 
CCN(CC)CCNC(=O)c1c(C)[nH]c2c1CCC/C2=C1/C(=O)Nc2ccc(F)cc21.O=C(O)CC(O)(CC(=O)O)C(=O)O [Citrate, (Z)—N-[2-(diethylamino)ethyl]-2-methyl-7-(1,2-dihydro-5-fluoro-2-oxo-3H-indol-3-ylidene)-4,5,6,7-tetrahydro-1H-indol-3-carboxamide citrate] | Slight hygroscopicity (hygroscopic weight gain was less than 2% and not less than 0.2%) | 38.2 | 838 |  | 
CCN(CC)CCNC(=O)c1c(C)[nH]c2c1CCC/C2=C1/C(=O)Nc2ccc(F)cc21.O=C(O)/C=C/C(=O)O [Fumarate, (Z)—N-[2-(diethylamino)ethyl]-2-methyl-7-(1,2-dihydro-5-fluoro-2-oxo-3H-indol-3-ylidene)-4,5,6,7-tetrahydro-1H-indol-3-carboxamide fumarate] | Slight hygroscopicity (hygroscopic weight gain was less than 2% and not less than 0.2%) | 0.0168 |  |  | 
Br.CCN(CC)CCNC(=O)c1c(C)[nH]c2c1CCC/C2=C1/C(=O)Nc2ccc(F)cc21 [Hydrobromate, (Z)—N-[2-(diethylamino)ethyl]-2-methyl-7-(1,2-dihydro-5-fluoro-2-oxo-3H-indol-3-ylidene)-4,5,6,7-tetrahydro-1H-indol-3-carboxamide hydrobromate] | Almost no hygroscopicity |  |  | 3.5922 | 
CCN(CC)CCNC(=O)c1c(C)[nH]c2c1CCC/C2=C1/C(=O)Nc2ccc(F)cc21.Cl [Hydrochloride, (Z)—N-[2-(diethylamino)ethyl]-2-methyl-7-(1,2-dihydro-5-fluoro-2-oxo-3H-indol-3-ylidene)-4,5,6,7-tetrahydro-1H-indol-3-carboxamide hydrochloride] | Almost no hygroscopicity | 22.8 | 185 |  | 
CCN(CC)CCNC(=O)c1c(C)[nH]c2c1CCC/C2=C1/C(=O)Nc2ccc(F)cc21.O=C(O)C[C@H](O)C(=O)O [L-malate, (Z)—N-[2-(diethylamino)ethyl]-2-methyl-7-(1,2-dihydro-5-fluoro-2-oxo-3H-indol-3-ylidene)-4,5,6,7-tetrahydro-1H-indol-3-carboxamide L-malate] | Almost no hygroscopicity | 38.6 | 1490 |  | 54
CCN(CC)CCNC(=O)c1c(C)[nH]c2c1CCC/C2=C1/C(=O)Nc2ccc(F)cc21.O=C(O)C(O)C(O)C(=O)O [L-tartrate, (Z)—N-[2-(diethylamino)ethyl]-2-methyl-7-(1,2-dihydro-5-fluoro-2-oxo-3H-indol-3-ylidene)-4,5,6,7-tetrahydro-1H-indol-3-carboxamide L-tartrate] | Slight hygroscopicity (hygroscopic weight gain was less than 2% and not less than 0.2%) | 10.6 |  |  | 
CC(O)C(=O)O.CCN(CC)CCNC(=O)c1c(C)[nH]c2c1CCC/C2=C1/C(=O)Nc2ccc(F)cc21 [Lactate, (Z)—N-[2-(diethylamino)ethyl]-2-methyl-7-(1,2-dihydro-5-fluoro-2-oxo-3H-indol-3-ylidene)-4,5,6,7-tetrahydro-1H-indol-3-carboxamide lactate] | Hygroscopicity (hygroscopic weight gain was less than 15% and not less than 2%) | 24 | 652 |  | 
CCN(CC)CCNC(=O)c1c(C)[nH]c2c1CCC/C2=C1/C(=O)Nc2ccc(F)cc21.O=C(O)/C=C\C(=O)O [Maleate, (Z)—N-[2-(diethylamino)ethyl]-2-methyl-7-(1,2-dihydro-5-fluoro-2-oxo-3H-indol-3-ylidene)-4,5,6,7-tetrahydro-1H-indol-3-carboxamide maleate] | Slight hygroscopicity (hygroscopic weight gain was less than 2% and not less than 0.2%) | 1.32 |  |  | 
CCN(CC)CCNC(=O)c1c(C)[nH]c2c1CCC/C2=C1/C(=O)Nc2ccc(F)cc21.CS(=O)(=O)O [Methanesulfonate, (Z)—N-[2-(diethylamino)ethyl]-2-methyl-7-(1,2-dihydro-5-fluoro-2-oxo-3H-indol-3-ylidene)-4,5,6,7-tetrahydro-1H-indol-3-carboxamide methanesulfonate] | Strong hygroscopicity (hygroscopic weight gain was not less than 15%) | 12.3 |  |  | 
CCN(CC)CCNC(=O)c1c(C)[nH]c2c1CCC/C2=C1/C(=O)Nc2ccc(F)cc21.Cc1ccc(S(=O)(=O)O)cc1 [P-toluenesulfonate, (Z)—N-[2-(diethylamino)ethyl]-2-methyl-7-(1,2-dihydro-5-fluoro-2-oxo-3H-indol-3-ylidene)-4,5,6,7-tetrahydro-1H-indol-3-carboxamide p-toluenesulfonate] | Slight hygroscopicity (hygroscopic weight gain was less than 2% and not less than 0.2%) | 0.419 |  |  | 
CCN(CC)CCNC(=O)c1c(C)[nH]c2c1CCC/C2=C1/C(=O)Nc2ccc(F)cc21.O=P(O)(O)O [Phosphate, (Z)—N-[2-(diethylamino)ethyl]-2-methyl-7-(1,2-dihydro-5-fluoro-2-oxo-3H-indol-3-ylidene)-4,5,6,7-tetrahydro-1H-indol-3-carboxamide phosphate] | Slight hygroscopicity (hygroscopic weight gain was less than 2% and not less than 0.2%) | 29.7 | 322 |  | 
CCN(CC)CCNC(=O)c1c(C)[nH]c2c1CCC/C2=C1/C(=O)Nc2ccc(F)cc21.O=C(O)CCC(=O)O [Succinate, (Z)—N-[2-(diethylamino)ethyl]-2-methyl-7-(1,2-dihydro-5-fluoro-2-oxo-3H-indol-3-ylidene)-4,5,6,7-tetrahydro-1H-indol-3-carboxamide succinate] | Slight hygroscopicity (hygroscopic weight gain was less than 2% and not less than 0.2%) | 13.4 |  |  | 
CCN(CC)CCNC(=O)c1c(C)[nH]c2c1CCC/C2=C1/C(=O)Nc2ccc(F)cc21.O=S(=O)(O)O [Sulfate, (Z)—N-[2-(diethylamino)ethyl]-2-methyl-7-(1,2-dihydro-5-fluoro-2-oxo-3H-indol-3-ylidene)-4,5,6,7-tetrahydro-1H-indol-3-carboxamide sulfate] | Slight hygroscopicity (hygroscopic weight gain was less than 2% and not less than 0.2%) | 0.236 |  |  | 
(Z)—N-[2-(diethylamino)ethyl]-2-methyl-7-(1,2-dihydro-5-fluoro-2-oxo-3H-indol-3-ylidene)-4,5,6,7-tetrahydro-1H-indol-3-carboxamide L-mandelate | Hygroscopicity (hygroscopic weight gain was less than 15% and not less than 2%) |  |  | 14.7218 | 
